Laboratory results as given in ChEMBL document CHEMBL1143902, “Design and synthesis of a pyrido[2,3-d]pyrimidin-5-one class of anti-inflammatory FMS inhibitors” (Bioorg Med Chem Lett, 2008).
Values belong to the molecule of their own block, whether it stands above or below them.

How the values were obtained:
[1] = test system: Macrophage; assay: Inhibition of CSF1-induced proliferation of mouse bone marrow derived macrophages
[2] = target: T1, Macrophage colony-stimulating factor 1 receptor (Homo sapiens, UniProt P07333); assay: Inhibition of CSF1R
T1 sequence (P07333 whole entry): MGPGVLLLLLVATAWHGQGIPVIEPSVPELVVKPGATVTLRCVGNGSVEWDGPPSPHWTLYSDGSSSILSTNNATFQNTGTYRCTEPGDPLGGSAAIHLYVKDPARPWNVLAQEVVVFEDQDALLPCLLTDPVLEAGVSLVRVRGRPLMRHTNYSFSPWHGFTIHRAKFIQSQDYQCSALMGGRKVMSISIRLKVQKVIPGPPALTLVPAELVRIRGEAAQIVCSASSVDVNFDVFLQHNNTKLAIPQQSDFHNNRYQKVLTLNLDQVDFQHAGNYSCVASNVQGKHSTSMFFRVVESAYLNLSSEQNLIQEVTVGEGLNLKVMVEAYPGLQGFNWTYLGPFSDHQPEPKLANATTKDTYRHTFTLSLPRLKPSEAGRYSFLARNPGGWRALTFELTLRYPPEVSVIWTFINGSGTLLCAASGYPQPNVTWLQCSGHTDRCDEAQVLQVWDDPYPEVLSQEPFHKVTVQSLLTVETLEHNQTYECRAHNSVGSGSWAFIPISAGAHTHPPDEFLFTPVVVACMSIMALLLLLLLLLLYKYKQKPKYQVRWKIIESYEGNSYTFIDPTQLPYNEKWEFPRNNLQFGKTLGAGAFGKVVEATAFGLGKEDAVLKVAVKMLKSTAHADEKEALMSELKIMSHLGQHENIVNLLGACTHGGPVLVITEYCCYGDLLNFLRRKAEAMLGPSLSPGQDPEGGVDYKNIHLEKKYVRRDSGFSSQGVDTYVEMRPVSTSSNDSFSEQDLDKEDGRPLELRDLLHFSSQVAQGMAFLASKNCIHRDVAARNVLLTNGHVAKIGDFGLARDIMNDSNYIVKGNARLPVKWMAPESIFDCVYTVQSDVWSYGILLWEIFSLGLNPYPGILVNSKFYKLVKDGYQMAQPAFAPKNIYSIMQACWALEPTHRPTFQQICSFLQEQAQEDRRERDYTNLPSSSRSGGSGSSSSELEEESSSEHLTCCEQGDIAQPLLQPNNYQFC

[3] = Metabolic stability in human liver microsomes after 10 mins; format: ADME, Microsome; details: read-out: Stability
[4] = Metabolic stability in rat liver microsomes after 10 mins; format: ADME, Microsome; details: read-out: Stability
[5] = target: T2, Receptor-type tyrosine-protein kinase FLT3 (Homo sapiens, UniProt P36888); assay: Inhibition of FLT3
T2 sequence (P36888 whole entry): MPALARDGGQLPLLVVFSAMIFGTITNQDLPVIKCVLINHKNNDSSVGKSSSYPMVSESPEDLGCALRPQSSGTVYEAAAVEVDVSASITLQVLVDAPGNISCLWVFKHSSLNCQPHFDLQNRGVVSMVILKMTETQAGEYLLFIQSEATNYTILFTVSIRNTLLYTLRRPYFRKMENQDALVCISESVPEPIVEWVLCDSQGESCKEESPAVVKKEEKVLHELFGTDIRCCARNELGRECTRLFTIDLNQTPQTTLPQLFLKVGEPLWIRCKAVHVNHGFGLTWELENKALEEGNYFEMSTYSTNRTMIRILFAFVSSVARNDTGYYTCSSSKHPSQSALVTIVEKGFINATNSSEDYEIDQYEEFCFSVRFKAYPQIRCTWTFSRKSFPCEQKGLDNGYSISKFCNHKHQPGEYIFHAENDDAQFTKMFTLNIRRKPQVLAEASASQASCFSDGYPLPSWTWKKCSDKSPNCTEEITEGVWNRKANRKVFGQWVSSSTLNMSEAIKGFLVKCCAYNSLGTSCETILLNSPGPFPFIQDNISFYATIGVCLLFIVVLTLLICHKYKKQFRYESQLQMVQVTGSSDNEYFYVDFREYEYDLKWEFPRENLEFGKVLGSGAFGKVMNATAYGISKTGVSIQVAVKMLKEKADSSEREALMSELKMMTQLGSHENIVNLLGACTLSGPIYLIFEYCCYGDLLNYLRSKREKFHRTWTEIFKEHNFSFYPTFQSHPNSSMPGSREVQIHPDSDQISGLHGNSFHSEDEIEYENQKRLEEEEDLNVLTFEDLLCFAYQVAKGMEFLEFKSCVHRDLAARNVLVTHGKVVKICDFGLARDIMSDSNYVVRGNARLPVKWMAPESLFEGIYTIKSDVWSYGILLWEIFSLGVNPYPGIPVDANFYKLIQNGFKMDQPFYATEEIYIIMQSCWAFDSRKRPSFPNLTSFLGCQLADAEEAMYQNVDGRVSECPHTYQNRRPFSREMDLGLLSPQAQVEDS

[6] = target: Mast/stem cell growth factor receptor Kit (Homo sapiens, UniProt P10721); assay: Inhibition of KIT
Chain of Mast/stem cell growth factor receptor Kit (P10721 whole entry): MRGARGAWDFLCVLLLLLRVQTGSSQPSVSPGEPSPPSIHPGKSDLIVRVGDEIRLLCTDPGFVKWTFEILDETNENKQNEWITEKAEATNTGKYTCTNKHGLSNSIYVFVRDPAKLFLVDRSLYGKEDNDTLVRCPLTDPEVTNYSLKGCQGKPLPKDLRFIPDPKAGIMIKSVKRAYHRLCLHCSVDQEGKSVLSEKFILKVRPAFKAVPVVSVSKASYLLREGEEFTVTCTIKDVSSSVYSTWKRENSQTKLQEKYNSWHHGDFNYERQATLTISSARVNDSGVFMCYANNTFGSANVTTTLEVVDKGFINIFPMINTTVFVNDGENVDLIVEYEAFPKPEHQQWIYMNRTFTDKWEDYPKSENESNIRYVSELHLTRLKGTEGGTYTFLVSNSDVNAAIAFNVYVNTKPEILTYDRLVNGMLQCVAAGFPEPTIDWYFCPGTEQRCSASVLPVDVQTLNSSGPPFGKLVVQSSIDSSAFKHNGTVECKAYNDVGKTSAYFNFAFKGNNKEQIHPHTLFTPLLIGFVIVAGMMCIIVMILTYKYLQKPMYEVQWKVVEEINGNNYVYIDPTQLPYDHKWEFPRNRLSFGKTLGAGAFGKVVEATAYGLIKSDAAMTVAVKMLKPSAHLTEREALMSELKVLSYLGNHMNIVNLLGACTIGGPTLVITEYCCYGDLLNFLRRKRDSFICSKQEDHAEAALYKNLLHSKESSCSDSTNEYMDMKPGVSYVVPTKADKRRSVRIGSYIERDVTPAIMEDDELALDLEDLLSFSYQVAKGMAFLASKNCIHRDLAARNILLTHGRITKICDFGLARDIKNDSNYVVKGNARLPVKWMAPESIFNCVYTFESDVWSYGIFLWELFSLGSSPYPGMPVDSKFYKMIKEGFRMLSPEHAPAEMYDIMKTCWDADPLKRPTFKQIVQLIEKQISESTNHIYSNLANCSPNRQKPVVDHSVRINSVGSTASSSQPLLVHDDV

[7] = target: Platelet-derived growth factor receptor beta (Homo sapiens, UniProt P09619); assay: Inhibition of PDGFRbeta
Chain of Platelet-derived growth factor receptor beta (P09619 whole entry): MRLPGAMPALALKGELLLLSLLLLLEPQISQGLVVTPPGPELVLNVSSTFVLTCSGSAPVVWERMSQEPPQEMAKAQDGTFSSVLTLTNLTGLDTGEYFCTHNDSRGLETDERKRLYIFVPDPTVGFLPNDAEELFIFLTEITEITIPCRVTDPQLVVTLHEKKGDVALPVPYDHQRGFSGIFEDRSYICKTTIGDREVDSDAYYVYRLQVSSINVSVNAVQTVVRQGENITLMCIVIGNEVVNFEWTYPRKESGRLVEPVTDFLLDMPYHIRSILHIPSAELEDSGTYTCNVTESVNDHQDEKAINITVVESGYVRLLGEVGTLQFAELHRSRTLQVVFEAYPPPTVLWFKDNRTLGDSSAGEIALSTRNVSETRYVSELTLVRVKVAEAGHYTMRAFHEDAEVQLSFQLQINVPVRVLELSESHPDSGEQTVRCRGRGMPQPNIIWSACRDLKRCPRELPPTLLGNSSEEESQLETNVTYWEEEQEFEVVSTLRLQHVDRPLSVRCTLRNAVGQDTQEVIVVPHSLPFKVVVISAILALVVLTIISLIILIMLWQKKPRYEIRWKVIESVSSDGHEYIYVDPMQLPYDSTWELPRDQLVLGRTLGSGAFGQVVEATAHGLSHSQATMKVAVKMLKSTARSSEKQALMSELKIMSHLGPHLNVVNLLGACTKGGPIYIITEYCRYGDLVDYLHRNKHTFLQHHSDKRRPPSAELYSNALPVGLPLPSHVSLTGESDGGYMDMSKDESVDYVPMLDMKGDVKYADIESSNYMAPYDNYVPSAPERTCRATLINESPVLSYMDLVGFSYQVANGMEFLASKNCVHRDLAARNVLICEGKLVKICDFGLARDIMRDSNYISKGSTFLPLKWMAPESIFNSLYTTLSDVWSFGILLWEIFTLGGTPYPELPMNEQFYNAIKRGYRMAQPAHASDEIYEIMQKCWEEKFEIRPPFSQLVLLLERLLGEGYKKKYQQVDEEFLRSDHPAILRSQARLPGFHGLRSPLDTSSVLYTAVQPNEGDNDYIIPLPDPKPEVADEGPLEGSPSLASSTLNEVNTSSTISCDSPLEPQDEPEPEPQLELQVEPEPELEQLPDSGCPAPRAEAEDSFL

[8] = target: T3, Tyrosine-protein kinase receptor UFO (Homo sapiens, UniProt P30530); assay: Inhibition of Axl
T3 sequence (P30530 whole entry): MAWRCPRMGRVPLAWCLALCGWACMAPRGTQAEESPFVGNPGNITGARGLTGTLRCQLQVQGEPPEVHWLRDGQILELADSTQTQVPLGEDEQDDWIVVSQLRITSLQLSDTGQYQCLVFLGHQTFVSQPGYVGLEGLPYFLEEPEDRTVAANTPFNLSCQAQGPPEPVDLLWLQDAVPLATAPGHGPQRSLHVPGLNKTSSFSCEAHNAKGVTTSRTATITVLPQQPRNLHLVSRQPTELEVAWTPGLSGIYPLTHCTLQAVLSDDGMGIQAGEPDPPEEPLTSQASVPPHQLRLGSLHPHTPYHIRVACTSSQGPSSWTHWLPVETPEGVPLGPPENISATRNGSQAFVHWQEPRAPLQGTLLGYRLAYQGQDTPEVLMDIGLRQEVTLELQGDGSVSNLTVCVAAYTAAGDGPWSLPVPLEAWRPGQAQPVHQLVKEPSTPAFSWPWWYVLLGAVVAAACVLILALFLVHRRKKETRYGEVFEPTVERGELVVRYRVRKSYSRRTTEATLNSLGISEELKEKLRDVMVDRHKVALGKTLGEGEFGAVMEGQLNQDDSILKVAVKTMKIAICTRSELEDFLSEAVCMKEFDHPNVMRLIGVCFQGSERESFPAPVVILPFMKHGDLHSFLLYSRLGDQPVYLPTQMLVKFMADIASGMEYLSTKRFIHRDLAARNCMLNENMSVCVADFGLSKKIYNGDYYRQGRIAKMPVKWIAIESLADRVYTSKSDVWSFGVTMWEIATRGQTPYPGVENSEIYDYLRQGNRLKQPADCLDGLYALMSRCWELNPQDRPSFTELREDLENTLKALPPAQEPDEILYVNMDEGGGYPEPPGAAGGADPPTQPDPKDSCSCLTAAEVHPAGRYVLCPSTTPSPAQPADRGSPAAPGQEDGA

[9] = target: High affinity nerve growth factor receptor (Homo sapiens, UniProt P04629); assay: Inhibition of TrkA
Chain of High affinity nerve growth factor receptor (P04629 whole entry): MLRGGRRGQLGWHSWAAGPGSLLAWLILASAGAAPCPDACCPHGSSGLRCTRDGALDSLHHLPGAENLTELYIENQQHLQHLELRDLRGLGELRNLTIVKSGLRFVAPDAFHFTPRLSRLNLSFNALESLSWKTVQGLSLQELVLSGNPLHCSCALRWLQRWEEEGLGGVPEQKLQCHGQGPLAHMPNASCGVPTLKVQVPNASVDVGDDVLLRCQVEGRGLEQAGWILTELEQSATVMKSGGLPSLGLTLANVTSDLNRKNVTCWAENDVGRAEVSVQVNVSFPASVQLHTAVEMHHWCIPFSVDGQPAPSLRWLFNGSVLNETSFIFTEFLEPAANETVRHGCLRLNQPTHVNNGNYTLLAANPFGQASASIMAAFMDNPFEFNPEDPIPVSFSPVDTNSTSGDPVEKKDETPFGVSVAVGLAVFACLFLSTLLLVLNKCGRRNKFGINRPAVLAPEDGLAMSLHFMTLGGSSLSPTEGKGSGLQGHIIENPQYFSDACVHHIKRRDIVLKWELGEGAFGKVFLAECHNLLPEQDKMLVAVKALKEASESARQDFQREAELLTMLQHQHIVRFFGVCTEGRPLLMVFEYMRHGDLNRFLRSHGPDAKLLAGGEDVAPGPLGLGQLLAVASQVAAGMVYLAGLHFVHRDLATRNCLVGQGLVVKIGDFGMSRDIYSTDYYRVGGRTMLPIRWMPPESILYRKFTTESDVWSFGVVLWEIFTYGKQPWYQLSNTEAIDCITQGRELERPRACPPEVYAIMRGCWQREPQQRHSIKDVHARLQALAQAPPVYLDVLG

[10] = Inhibition of IRKbeta
[11] = target: Proto-oncogene tyrosine-protein kinase Src (Homo sapiens, UniProt P12931); assay: Inhibition of Src
Chain of Proto-oncogene tyrosine-protein kinase Src (P12931 2-536 limits assumed): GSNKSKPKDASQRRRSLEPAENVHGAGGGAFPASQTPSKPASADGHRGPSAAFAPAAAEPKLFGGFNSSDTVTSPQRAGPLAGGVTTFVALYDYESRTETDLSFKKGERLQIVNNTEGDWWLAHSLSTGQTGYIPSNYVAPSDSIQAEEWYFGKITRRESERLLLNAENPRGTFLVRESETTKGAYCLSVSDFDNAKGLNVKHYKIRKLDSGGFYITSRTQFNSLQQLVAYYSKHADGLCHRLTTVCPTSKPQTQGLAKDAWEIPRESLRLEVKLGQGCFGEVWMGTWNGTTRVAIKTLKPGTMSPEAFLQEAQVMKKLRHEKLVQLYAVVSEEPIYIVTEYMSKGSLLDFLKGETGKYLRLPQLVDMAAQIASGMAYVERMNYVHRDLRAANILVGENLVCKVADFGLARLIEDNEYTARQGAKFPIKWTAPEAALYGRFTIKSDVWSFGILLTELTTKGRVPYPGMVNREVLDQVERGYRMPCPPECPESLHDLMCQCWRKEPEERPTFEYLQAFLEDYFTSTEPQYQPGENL

[12] = target: T4, Adenosine receptor A3 (Homo sapiens) (UniProt P0DMS8); assay: Inhibition of human A3 receptor at 5 uM
T4 sequence (whole entry): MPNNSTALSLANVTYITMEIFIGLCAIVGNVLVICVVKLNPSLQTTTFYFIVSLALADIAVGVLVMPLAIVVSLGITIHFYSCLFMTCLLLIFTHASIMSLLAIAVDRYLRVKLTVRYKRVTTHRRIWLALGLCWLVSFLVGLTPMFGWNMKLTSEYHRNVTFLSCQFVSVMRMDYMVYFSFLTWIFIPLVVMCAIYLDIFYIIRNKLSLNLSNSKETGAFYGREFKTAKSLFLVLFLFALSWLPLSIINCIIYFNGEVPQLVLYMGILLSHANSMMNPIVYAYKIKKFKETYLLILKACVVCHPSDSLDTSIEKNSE

[13] = Clearance in rat at 2 mg/kg, iv; format: ADME, organism-based; design: dose 2 mg/kg, route intravenous; details: in vivo
[14] = Volume of distribution in rat at 2 mg/kg, iv; format: ADME, organism-based; design: dose 2 mg/kg, route intravenous; details: in vivo
[15] = target: T1, Macrophage colony-stimulating factor 1 receptor
Description: Inhibition of ATP-induced CSF1R autophosphorylation

[16] = target: T4, Adenosine receptor A3 (Homo sapiens); assay: Inhibition of human A3 receptor at 10 uM
[17] = target: Adenosine receptor A2a (Homo sapiens) (UniProt P29274); assay: Inhibition of human A2A receptor at 10 uM
Chain of Adenosine receptor A2a (Homo sapiens) (P29274 whole entry): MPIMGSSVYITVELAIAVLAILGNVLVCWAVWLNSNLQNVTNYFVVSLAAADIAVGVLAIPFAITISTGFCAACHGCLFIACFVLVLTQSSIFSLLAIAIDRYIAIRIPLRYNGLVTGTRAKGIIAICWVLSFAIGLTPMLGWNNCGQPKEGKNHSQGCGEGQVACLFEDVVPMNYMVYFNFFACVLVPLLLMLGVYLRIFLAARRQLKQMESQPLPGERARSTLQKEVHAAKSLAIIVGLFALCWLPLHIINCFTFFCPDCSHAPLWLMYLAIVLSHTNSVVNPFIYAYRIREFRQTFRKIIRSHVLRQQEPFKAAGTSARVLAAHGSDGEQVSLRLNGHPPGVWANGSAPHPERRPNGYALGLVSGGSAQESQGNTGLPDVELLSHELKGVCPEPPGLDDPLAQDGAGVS

[18] = Bioavailability in rat 10 mg/kg, po; format: ADME, organism-based; details: in vivo
[19] = test system: Mus musculus; assay: Inhibition of LPS-induced TNFalpha production in Swiss Webster mouse plasma at 20 mg/kg, ip after 90 mins; format: functional; design: scale not given: the % may be the effect or the level left; details: route intraperitoneal
[20] = test system: Mus musculus; assay: Inhibition of LPS-induced TNFalpha production in Swiss Webster mouse plasma at 50 mg/kg, ip after 90 mins; format: functional; design: scale not given: the % may be the effect or the level left; details: route intraperitoneal

IC50 [2]: 13 nM | remaining at 10 min [3]: 80.5% | remaining at 10 min [4]: 87.3% | IC50 [5]: 3 nM | IC50 [6]: 56 nM | IC50 [7]: > 1000 nM | IC50 [8]: > 300 nM | IC50 [9]: 200 nM | IC50 [10]: > 1000 nM | IC50 [11]: 1000 nM | inhibition [12]: 55% | clearance [13]: 133 mL/min/kg | Vd [14]: 18.7 L/kg
SMILES: CN1CCN(c2ccc(Nc3ncc4c(=O)c(C(N)=O)cn(-c5ccc6c(c5)CCC6)c4n3)cc2)CC1
IC50 [1]: 16 nM

IC50 [15]: 250 nM
SMILES: CCOC(=O)c1cn(-c2ccc3c(c2)CCC3)c2nc(Nc3ccc(N4CCN(C)CC4)cc3)ncc2c1=O
IC50 [1]: 470 nM

IC50 [15]: 280 nM
SMILES: NC(=O)c1cn(-c2ccc3c(c2)CCC3)c2nc(Nc3ccccc3)ncc2c1=O

remaining at 10 min [3]: 88% | remaining at 10 min [4]: 65%
SMILES: CN(C)CCc1ccc(Nc2ncc3c(=O)c(C(N)=O)cn(-c4ccc5c(c4)CCC5)c3n2)cc1
IC50 [1]: 16 nM

remaining at 10 min [3]: 35% | remaining at 10 min [4]: 38%
SMILES: CN(C)Cc1ccc(Nc2ncc3c(=O)c(C(N)=O)cn(-c4ccc5c(c4)CCC5)c3n2)cc1
IC50 [1]: 4 nM

remaining at 10 min [3]: 74% | remaining at 10 min [4]: 54% | IC50 [5]: 1 nM | IC50 [6]: 28 nM | IC50 [7]: > 2000 nM | IC50 [8]: > 500 nM | IC50 [9]: 310 nM | IC50 [10]: > 2000 nM | IC50 [11]: 1500 nM | inhibition [16]: 60% | inhibition [17]: 58% | clearance [13]: 29 mL/min/kg | Vd [14]: 26.5 L/kg | bioavailability [18]: 4%
SMILES: CN1CCN(Cc2ccc(Nc3ncc4c(=O)c(C(N)=O)cn(-c5ccc6c(c5)CCC6)c4n3)cc2)CC1
IC50 [1]: 11 nM | Activity [19]: 81% | Activity [20]: 87%

Second part, the molecule before the results:

SMILES: CN1CCN(c2cccc(Nc3ncc4c(=O)c(C(N)=O)cn(-c5ccc6c(c5)CCC6)c4n3)c2)CC1
IC50 [1]: 6 nM

SMILES: NC(=O)c1cn(-c2ccc3c(c2)CCC3)c2nc(Nc3ccc(C[C@H]4COC(=O)N4)cc3)ncc2c1=O
IC50 [1]: 90 nM

SMILES: CC1CN(c2ccc(Nc3ncc4c(=O)c(C(N)=O)cn(-c5ccc6c(c5)CCC6)c4n3)cc2)CC(C)N1 (centres undefined)
IC50 [1]: 3 nM

SMILES: NC(=O)c1cn(-c2ccc3c(c2)CCC3)c2nc(Nc3ccc(C4CCNCC4)cc3)ncc2c1=O
IC50 [1]: 51 nM

SMILES: NC(=O)c1cn(-c2ccc3c(c2)CCC3)c2nc(Nc3ccc(CCN4CCOCC4)cc3)ncc2c1=O
IC50 [1]: 8 nM | remaining at 10 min [3]: 58% | remaining at 10 min [4]: 83% | IC50 [15]: 8 nM

SMILES: NC(=O)c1cn(-c2ccc3c(c2)CCC3)c2nc(Nc3cccc(C(=O)N4CCCCC4)c3)ncc2c1=O
IC50 [1]: 14 nM

SMILES: CN1CCN(CCc2ccc(Nc3ncc4c(=O)c(C(N)=O)cn(-c5ccc6c(c5)CCC6)c4n3)cc2)CC1
IC50 [1]: 9 nM | remaining at 10 min [3]: 96% | remaining at 10 min [4]: 84%

SMILES: CN1CCN(CCCNc2ncc3c(=O)c(C(N)=O)cn(-c4ccc5c(c4)CCC5)c3n2)CC1
IC50 [15]: 1800 nM

SMILES: NC(=O)c1cn(-c2ccc3c(c2)CCC3)c2nc(Nc3ccc(N4CCNCC4)cc3)ncc2c1=O
IC50 [1]: 4 nM

SMILES: CCOC(=O)c1nc2cnc(Nc3ccccc3)nc2n(-c2ccccc2)c1=O [PTERIDINONE]
IC50 [2]: 180 nM

SMILES: NC(=O)c1cn(-c2ccc3c(c2)CCC3)c2nc(Nc3ccc(CN4CCOCC4)cc3)ncc2c1=O
IC50 [1]: 27 nM | remaining at 10 min [3]: 2.5% | remaining at 10 min [4]: 9.7% | IC50 [15]: 22 nM
